Activity calls are given as the source filed them.
Legend:
[1] = molecular target: T1, Alkaline phosphatase, tissue-nonspecific isozyme (Homo sapiens, UniProt P05186); assay: potency against alkaline phosphatase TNAP – biochemical, luminescent, dose response, SAR follow-up (AID 1056)
T1 sequence (P05186 whole entry): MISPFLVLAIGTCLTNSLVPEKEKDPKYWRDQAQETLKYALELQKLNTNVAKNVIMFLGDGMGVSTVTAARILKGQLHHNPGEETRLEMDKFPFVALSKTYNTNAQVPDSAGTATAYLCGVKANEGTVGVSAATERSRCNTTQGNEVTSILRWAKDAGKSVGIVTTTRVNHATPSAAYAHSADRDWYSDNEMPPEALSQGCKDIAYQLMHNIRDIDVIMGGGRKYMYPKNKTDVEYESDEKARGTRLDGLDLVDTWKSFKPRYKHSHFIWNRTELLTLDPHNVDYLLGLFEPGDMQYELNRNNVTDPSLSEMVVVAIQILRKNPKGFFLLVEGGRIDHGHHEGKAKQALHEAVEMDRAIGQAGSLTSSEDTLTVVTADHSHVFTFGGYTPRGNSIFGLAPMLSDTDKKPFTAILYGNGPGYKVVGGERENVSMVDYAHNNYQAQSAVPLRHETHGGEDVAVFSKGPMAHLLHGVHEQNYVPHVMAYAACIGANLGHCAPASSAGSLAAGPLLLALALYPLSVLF

[2] = molecular target: Glyceraldehyde-3-phosphate dehydrogenase (Homo sapiens, UniProt P04406)
[3] = growth inhibition of yeast DHODH-expressing 3D7 parasites – SYBR Green, dry powder samples, dose response (AID 1159570); assay type: functional, cell-based;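 note: parasite growth measured after 72 hours of compound exposure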
[4] = Dd2 malaria parasite growth inhibition potency – SYBR Green, dry powder samples, dose response (AID 1159566); assay type: functional, cell-based;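 note: potency for growth inhibition with lower SYBR green DNA signal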
[5] = P. falciparum Dd2 growth inhibitors, dose response, SYBR Green, cherry-picked samples (AID 1159567); assay type: functional, cell-based
[6] = growth inhibition of PfATP4-mutant resistant parasites – NITD609-resistant line, SYBR Green, dry powder, dose response (AID 1159571); assay type: functional, cell-based;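 note: parasites synchronized at ring stage by sorbitol before testing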
[7] = molecular target: T2, High affinity choline transporter 1 (Homo sapiens, UniProt Q9GZV3); assay: human choline transporter blockers, potency – cell-based, 5-point CRC, membrane potential dye, dose response (AID 504840); assay type: functional
T2 sequence (Q9GZV3 whole entry): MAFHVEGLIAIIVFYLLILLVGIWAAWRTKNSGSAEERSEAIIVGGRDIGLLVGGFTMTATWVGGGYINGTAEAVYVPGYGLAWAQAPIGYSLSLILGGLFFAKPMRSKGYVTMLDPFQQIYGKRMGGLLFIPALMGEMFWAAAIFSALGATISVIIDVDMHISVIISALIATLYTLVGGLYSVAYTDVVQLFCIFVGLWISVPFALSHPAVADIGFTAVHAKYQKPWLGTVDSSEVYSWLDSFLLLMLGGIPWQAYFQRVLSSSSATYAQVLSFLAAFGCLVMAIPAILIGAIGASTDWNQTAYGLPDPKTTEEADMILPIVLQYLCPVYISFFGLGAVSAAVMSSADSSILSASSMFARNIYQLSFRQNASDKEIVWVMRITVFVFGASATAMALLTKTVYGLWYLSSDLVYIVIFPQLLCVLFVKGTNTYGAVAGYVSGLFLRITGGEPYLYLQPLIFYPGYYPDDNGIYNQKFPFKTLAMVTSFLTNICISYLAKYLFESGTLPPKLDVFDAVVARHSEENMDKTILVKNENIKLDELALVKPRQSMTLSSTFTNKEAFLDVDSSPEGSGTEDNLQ

HEK293 [8] = assay: inhibition of NOD1-driven NF-kB reporter – cell-based, luminescence, uHTS, primary screen (AID 1578); assay type: functional; conditions: Homo sapiens
HEK293 [9] = assay: cells; assay type: functional, cell-based; conditions: Homo sapiens
HEK293 [10] = assay: NOD2 signaling inhibitors in MDP-stimulated cells, cell-based, uHTS, luminescence (AID 2001); assay type: functional; conditions: Homo sapiens
HEK293 [11] = assay: cells; assay type: functional, cell-based; conditions: Homo sapiens; remark: listed apart in the source
[12] = molecular target: T3, Short transient receptor potential channel 4 (Mus musculus, UniProt Q9QUQ5); assay: calcium entry via TRPC4 opening agents – cell-based, HEK293 TRPC4/mu-opioid, Fluo-4 calcium, dose response (AID 434937); assay type: functional
T3 sequence (Q9QUQ5 whole entry): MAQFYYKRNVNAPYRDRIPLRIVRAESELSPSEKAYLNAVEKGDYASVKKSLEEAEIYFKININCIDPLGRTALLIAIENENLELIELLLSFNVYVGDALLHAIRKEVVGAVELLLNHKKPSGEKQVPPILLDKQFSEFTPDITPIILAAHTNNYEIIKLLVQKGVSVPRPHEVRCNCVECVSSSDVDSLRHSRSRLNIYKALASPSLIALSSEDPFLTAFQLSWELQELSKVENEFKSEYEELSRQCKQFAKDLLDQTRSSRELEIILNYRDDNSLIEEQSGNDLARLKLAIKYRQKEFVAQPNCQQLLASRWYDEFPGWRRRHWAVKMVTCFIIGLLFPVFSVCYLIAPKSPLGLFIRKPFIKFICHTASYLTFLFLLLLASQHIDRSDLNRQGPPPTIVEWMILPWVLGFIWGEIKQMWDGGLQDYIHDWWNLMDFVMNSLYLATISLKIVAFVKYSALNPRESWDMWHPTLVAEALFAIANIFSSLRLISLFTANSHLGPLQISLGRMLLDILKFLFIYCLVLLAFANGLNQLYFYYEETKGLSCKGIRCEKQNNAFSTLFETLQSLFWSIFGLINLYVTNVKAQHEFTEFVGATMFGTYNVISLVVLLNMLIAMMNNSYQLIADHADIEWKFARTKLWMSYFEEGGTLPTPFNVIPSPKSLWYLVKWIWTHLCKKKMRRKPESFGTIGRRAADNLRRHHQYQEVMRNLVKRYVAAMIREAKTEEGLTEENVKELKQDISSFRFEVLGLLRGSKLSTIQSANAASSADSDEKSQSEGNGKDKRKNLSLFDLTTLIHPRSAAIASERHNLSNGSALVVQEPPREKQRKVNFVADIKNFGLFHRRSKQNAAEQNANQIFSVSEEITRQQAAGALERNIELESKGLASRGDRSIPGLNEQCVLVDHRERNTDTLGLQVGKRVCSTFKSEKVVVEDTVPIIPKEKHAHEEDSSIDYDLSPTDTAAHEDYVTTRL

Streptococcus = assay: GAS UMAA2166 growth inhibition – luminescence, BacTiterGlo, counter-screen for streptokinase expression inhibitor project, dose response (AID 1915); assay type: functional, organism-based;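 note: potency for reduction of bacterial viability or growth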
[13] = tested on: Streptococcus sp. 'group A'; assay: Streptococcus pyogenes SK(-)GAS viability under kanamycin – luminescence, BacTiterGlo, confirmation, counter-screen for streptokinase expression inhibitor project, dose response (AID 1900); assay type: functional, organism-based
Coagulation factor XII = molecular target: T4, Coagulation factor XII (Homo sapiens, UniProt P00748); assay type: functional;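 note: activated factor XIIa alpha cleaving a fluorogenic AMC peptide substrate; inhibitor potency from loss of enzyme activity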
T4 sequence (P00748 whole entry): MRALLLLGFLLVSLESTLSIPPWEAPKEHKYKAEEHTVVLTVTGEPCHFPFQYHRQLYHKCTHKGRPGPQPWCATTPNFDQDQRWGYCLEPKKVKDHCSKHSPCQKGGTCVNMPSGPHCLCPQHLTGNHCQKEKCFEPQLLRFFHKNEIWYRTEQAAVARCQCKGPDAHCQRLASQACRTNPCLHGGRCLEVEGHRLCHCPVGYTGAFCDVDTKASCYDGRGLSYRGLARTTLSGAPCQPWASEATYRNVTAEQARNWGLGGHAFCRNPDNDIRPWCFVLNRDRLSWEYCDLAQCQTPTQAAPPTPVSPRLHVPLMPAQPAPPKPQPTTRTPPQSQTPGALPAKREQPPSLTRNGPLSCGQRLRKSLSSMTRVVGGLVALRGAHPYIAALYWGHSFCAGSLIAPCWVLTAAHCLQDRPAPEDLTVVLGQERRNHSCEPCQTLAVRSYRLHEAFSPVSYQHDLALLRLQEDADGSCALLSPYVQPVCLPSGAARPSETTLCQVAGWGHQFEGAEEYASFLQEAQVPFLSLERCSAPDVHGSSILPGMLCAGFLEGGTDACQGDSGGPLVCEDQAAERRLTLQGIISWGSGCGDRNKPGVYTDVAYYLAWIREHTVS

[14] = viability loss in THP-1 monocytes – THP-1 cells, cytotoxicity control for Vif-APOBEC3G degradation inhibitor project, dose response (AID 1117359); assay type: functional; conditions: THP-1
[15] = viability of HCT116 lacking mutant beta-catenin – cell-based, human colon tumor, dose response (AID 1045); assay type: functional;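 note: HCT116 colon tumor cells with beta catenin knocked out; cells exposed to compound for 60 hours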
[16] = viability of PTEN-deleted HCT116 cells – cell-based, HCT116 PTEN knockout, dose response (AID 1047); assay type: functional;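 note: HCT116 colon tumor cells with PTEN knocked out; cells exposed to compound for 60 hours before readout; potency for loss of cell viability measured by luminescence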
[17] = toxicity toward HepG2 liver cells – cell-based, plate reader, cherry-pick, antagonist series, cytotoxicity control, dose response (AID 743416); assay type: functional
BJ [18] = assay: BJ-TERT-LT-ST fibroblast viability loss – cell-based, RAS-independent, luminescence, dose response (AID 1935); assay type: functional; conditions: Homo sapiens;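 note: BJ fibroblasts immortalized with TERT plus LT and ST oncogenes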
[19] = molecular target: Luciferin 4-monooxygenase (Photinus pyralis, UniProt P08659); assay: inhibition of purified Photinus pyralis luciferase – biochemical, luminescence, dose response (AID 1891)
BJ [20] = assay: BJ-TERT fibroblast viability loss – cell-based, RAS-independent, luminescence, dose response (AID 1933); assay type: functional; conditions: Homo sapiens
[21] = blockers of bursicon-stimulated LGR2 cAMP reporter – cell-based, HEK293, CRE-luciferase reporter, cherry pick, set 2, dose response (AID 743343); assay type: functional;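 note: transfected cells were stimulated with diluted bursicon conditioned medium after compound addition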
[22] = Luminescence Cell-Based Dose Response HTS to Identify Inhibitors of 5'UTR Stem-Loop Driven Prion Protein mRNA Translation in H4 Neuroglioblastoma Cells. [Related pubchem assays: 1827 (Project Summary), 1813 (Primary HTS)]; assay type: functional
[23] = viability loss in HEK293 cells – cell-based, plate reader, cherry-picked samples, cytotoxicity control, dose response (AID 743446); assay type: functional
[24] = alpha-synuclein stem-loop luciferase translation blockers – H4 neuroglioma cells, luminescence, confirmation (AID 1988); assay type: functional, cell-based
[25] = blockade of melanocortin 4 receptor signaling – cell-based, plate reader, cherry pick, counter-screen for LGR2 antagonist project, dose response (AID 743444); assay type: functional;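 note: transfected HEK 293 cells stimulated with alpha-MSH peptide; potency of inhibitors of the alpha-MSH evoked signal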
[26] = Luminescence Cell-Based Dose Confirmation HTS to Identify Inhibitors of Platelet Dense Granule Release. [Related pubchem assays: 1663 (Primary HTS), 1678 (Summary of Project)]; assay type: functional
BJ [27] = assay: cells; assay type: functional, cell-based; conditions: Homo sapiens
[28] = A549 cell cytotoxicity, dose response, cytotoxicity control, plate reader, cherry-pick, antagonist series (AID 743412); assay type: functional, cell-based
[29] = DRD fibroblast viability loss – cell-based, non-viral oncogenic, luminescence, dose response (AID 1934); assay type: functional; conditions: Homo sapiens

Glyceraldehyde-3-phosphate dehydrogenase, sequence (P04406 whole entry): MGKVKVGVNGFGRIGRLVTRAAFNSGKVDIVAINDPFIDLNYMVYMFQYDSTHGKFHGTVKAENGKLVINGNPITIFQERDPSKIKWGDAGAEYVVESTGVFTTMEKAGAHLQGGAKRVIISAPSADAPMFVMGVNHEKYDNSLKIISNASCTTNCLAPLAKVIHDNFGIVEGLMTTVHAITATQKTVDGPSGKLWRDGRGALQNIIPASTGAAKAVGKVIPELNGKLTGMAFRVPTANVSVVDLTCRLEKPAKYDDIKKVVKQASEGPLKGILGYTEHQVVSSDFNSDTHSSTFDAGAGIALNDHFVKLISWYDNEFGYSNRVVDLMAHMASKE
Luciferin 4-monooxygenase, sequence (P08659 whole entry): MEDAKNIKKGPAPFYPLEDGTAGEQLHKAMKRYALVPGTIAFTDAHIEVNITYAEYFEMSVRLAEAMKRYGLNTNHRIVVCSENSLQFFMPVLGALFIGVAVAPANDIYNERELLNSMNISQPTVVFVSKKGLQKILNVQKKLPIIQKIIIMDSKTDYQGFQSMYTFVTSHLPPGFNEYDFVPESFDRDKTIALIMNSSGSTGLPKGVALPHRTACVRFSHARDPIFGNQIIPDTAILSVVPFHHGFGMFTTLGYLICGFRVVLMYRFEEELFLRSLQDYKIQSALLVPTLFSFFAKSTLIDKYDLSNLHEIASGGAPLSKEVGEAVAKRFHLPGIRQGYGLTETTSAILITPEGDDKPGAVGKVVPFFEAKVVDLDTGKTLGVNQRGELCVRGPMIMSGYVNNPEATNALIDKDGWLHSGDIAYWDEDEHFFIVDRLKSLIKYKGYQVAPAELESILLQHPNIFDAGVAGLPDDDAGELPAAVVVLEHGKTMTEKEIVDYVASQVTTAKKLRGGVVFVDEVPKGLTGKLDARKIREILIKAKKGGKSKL

COC(=O)c1ccc(OC)c(S(=O)(=O)Nc2cnc3ccccc3c2)c1
IC50 [1]: > 10 µM (inactive) | IC50 [2]: > 10 µM (inconclusive)

COc1ccc(NC(=O)N(C)C[C@H]2Oc3c(NC(=O)Nc4ccccc4)cccc3C(=O)N([C@@H](C)CO)C[C@H]2C)cc1
AC50 [3]: 0.261 µM (active) | AC50 [4]: 0.167 µM (active) | AC50 [5]: < 0.3 µM (active) | AC50 [6]: 0.2 µM (active)

COc1ccc(Br)cc1S(=O)(=O)Nc1ccon1
IC50 [1]: > 100 µM (inactive) | IC50 [2]: > 100 µM (not active)

COc1ccc(-c2csc3ncnc(N4CCN(CCO)CC4)c23)cc1
IC50 [7]: 13.8 µM (active)

O=c1c2cc(Br)ccc2nc(-c2ccc(Cl)cc2)n1O
EC50 (HEK293 [8]): 6.02 µM (active) | IC50 (HEK293 [9]): > 20 µM (inactive) | IC50 [7]: 5.01 µM (active) | IC50 (HEK293 [10]): 14.2 µM (inactive) | IC50 (HEK293 [11]): > 20 µM (inactive) | EC50 [12]: 6.68 µM (active) | EC50 (Streptococcus): 2.6 µM (active) | EC50 [13]: 1.24 µM (active)

Cc1nnc(NC(=O)c2c(F)c(F)c(F)c(F)c2F)s1
IC50 (Coagulation factor XII): > 50 µM (inactive)

CCN(CC)CCC(c1ccc2c(c1)OCO2)c1c(OC)cc(OC)c2c(-c3ccccc3)cc(=O)oc12 (stereo unspecified)
IC50 [7]: 18.2 µM (active)

Cc1ccc(S(=O)(=O)N2CCN(Cc3cc(C(C)C)ccc3O)CC2)cc1
IC50 (Coagulation factor XII): > 50 µM (inactive)

COc1ccc(OCCOC(=O)c2cc(S(=O)(=O)N3CCOCC3)c(Cl)cc2Cl)cc1
CC50 [14]: 23.9 µM (active)

CC(NC(=O)c1cccc(S(=O)(=O)N2CCN(C)CC2)c1)C1CC2CCC1C2 (stereo unspecified)
IC50 [7]: 13.2 µM (active)

CC1CCCCC1N=C(S)Nc1ccc(SC(F)F)cc1 (stereo unspecified)
EC50 [15]: 19 µM (active) | IC50 [7]: 7.63 µM (active) | EC50 [16]: 17.5 µM (active)

Cc1cccc(-c2nc3cc(NC(=O)C4CCCO4)ccc3o2)c1 (stereo unspecified)
AC50 [17]: 33.8 µM (active) | EC50 (BJ [18]): > 150 µM (not active) | EC50 [19]: 1.51 µM (active) | EC50 (BJ [20]): 23.3 µM (active) | AC50 [21]: 9.84 µM (active) | EC50 [22]: 9.83 µM (active) | AC50 [23]: 26.9 µM (active) | EC50 [24]: 9.78 µM (active) | AC50 [25]: 6.37 µM (active) | EC50 [26]: 1.57 µM (active) | EC50 (BJ [27]): 19.8 µM (active) | AC50 [28]: 43.3 µM (active) | EC50 [29]: 17 µM (active)

C[C@@H]1CN([C@@H](C)CO)C(=O)c2cccc(NC(=O)Nc3ccccc3)c2O[C@@H]1CN(C)C(=O)Nc1ccccc1
AC50 [3]: 1.06 µM (active) | AC50 [4]: 0.204 µM (active) | AC50 [5]: 0.37 µM (active) | AC50 [6]: 0.216 µM (active)

NNC(=O)CN1C(=O)CN=C(c2ccccc2)c2cc(Br)ccc21
IC50 (Coagulation factor XII): > 50 µM (inactive)

O=C(NCCN1CCc2ccccc2C1)C1CC(=O)N(C2CCCC2)C1 (stereo unspecified)
IC50 (Coagulation factor XII): > 50 µM (inactive)

CN(C)/C=C1\C=C(c2ccccc2)OC1=O
IC50 (Coagulation factor XII): > 50 µM (inactive)

CCOC(=O)Nc1cc(C)c(Cl)cc1OC
CC50 [14]: > 40 µM (active)
